Where two headings read alike, the source gives them in different places.
How the values were obtained:
Assay type in all cases: cell-based
PBMCs = assay: IL-2 and IFN gamma release in CD3/CD28 stimulated PBMC cells; settings: Homo sapiens
Protocol: PBMCs from healthy subjects are separated from whole blood using a density gradient (Lymphoprep, Axis-Shield Healthcare). Cells are added to a 96 well plate pre-coated with a mixture of CD3/CD38 monoclonal antibodies (0.3 μg/mL eBioscience and 3 μg/mL BD Pharmingen respectively). Compound at the desired concentration is then added to the wells and the plate left for 3 days under normal tissue culture conditions. Supernatants are harvested and IL-2 and IFN gamma release determined by Sandwich ELISA (Duo-set, R&D System). The IC50 is determined from the dose response curve.

[1] = system: intestinal mucosa biopsies from the inflamed regions of the colon of ulcerative colitis patients; assay: Human biopsy assay (ex-vivo cytokine release); settings: 1 μg/mL, 24 hours; for Cytokine (IL-1β, IL-6 and IL-8) release compared to the DMSO control: biopsies from ulcerative colitis patients; for IL-1β release from biopsies of UC patients / IL-6 release from biopsies of UC patients / IL-8 release from biopsies of UC patients: relative to DMSO control = 100%
Protocol: Intestinal mucosa biopsies are obtained from the inflamed regions of the colon of IBD patients. The biopsy material is cut into small pieces (2-3 mm) and placed on steel grids in an organ culture chamber at 37° C. in a 5% CO2/95% O2 atmosphere in serum-free media. DMSO control or test compounds at the desired concentration are added to the tissue and incubated for 24 hr in the organ culture chamber. The supernatant is harvested for determination of IL-6, IL-8, IL-1P and TNFα levels by R&D ELISA.
Percentage inhibition of cytokine release by the test compounds is calculated relative to the cytokine release determined for the DMSO control (100%).

HT29 cells = assay: IL-1-induced IL-8 release in HT29 cells; settings: Homo sapiens, HT-29, IL-1β-stimulated HT29 cells, read-out: IC50 Values for Inhibition of Cytokine Release HT29 cells IL-8
Protocol: HT29 cells, a human colon adenocarcinoma cell line, are plated in a 96 well plate (24 hrs) and pre-treated with compounds at the desired concentration for 2 hours before addition of 5 ng/mL of IL-1β (Abcam) for 24 hours. Supernatants are harvested for IL-8 quantification by Sandwich ELISA (Duo-set, R&D System). The IC50 is determined from the dose response curve.

[2] = IFNγ, read-out: IC50 Values for Inhibition of Cytokine Release PBMCs IFNγ
[3] = IL-2, read-out: IC50 Values for Inhibition of Cytokine Release PBMCs IL-2

SMILES	IC50 (PBMCs; [2]) [nM]	IC50 (PBMCs; [3]) [nM]	Cytokine (IL-1β, IL-6 and IL-8) release compared to the DMSO control [1]	IL-1β release from biopsies of UC patients [1] [%]	IL-6 release from biopsies of UC patients [1] [%]	IL-8 release from biopsies of UC patients [1] [%]	IC50 (HT29 cells) [nM]
C#CC(C)(C)c1cc(NC(=O)Nc2ccc(Oc3ccnc(Nc4cc(OC)cc(OCCOCCOCCOC)c4)n3)c3ccccc23)n(-c2ccc(C)cc2)n1 [Example 13, 1-(4-((2-((3-Methoxy-5-(2-(2-(2-methoxyethoxy)ethoxy)ethoxy)phenyl)amino)pyrimidin-4-yl)oxy)naphthalen-1-yl)-3-(3-(2-methylbut-3-yn-2-yl)-1-(p-tolyl)-1H-pyrazol-5-yl)urea]	1.3	58.8	significantly inhibited	3 ± 3	37 ± 52	7 ± 8	1.7
C#CC(C)(C)c1cc(NC(=O)Nc2ccc(Oc3ccnc(Nc4cc(C)c5[nH]ncc5c4)n3)c3ccccc23)n(-c2ccc(C)cc2)n1 [Example 2, 1-(4-((2-((7-Methyl-1H-indazol-5-yl)amino)pyrimidin-4-yl)oxy)naphthalen-1-yl)-3-(3-(2-methylbut-3-yn-2-yl)-1-(p-tolyl)-1H-pyrazol-5-yl)urea]	3.6	18	significantly inhibited	20 ± 13	37 ± 41	22 ± 21	3.2

— patent US9790209B2, “Kinase inhibitors” (Respivert Limited, priority 2012, dated 2017)
